The target in one test is JAK-2 enzyme (Homo sapiens, UniProt O60674). Briefly: JAK2 Inhibition Assay.
The target of another test is T1, JAK3 (Homo sapiens, UniProt P52333).
T1 sequence (P52333 1-1124): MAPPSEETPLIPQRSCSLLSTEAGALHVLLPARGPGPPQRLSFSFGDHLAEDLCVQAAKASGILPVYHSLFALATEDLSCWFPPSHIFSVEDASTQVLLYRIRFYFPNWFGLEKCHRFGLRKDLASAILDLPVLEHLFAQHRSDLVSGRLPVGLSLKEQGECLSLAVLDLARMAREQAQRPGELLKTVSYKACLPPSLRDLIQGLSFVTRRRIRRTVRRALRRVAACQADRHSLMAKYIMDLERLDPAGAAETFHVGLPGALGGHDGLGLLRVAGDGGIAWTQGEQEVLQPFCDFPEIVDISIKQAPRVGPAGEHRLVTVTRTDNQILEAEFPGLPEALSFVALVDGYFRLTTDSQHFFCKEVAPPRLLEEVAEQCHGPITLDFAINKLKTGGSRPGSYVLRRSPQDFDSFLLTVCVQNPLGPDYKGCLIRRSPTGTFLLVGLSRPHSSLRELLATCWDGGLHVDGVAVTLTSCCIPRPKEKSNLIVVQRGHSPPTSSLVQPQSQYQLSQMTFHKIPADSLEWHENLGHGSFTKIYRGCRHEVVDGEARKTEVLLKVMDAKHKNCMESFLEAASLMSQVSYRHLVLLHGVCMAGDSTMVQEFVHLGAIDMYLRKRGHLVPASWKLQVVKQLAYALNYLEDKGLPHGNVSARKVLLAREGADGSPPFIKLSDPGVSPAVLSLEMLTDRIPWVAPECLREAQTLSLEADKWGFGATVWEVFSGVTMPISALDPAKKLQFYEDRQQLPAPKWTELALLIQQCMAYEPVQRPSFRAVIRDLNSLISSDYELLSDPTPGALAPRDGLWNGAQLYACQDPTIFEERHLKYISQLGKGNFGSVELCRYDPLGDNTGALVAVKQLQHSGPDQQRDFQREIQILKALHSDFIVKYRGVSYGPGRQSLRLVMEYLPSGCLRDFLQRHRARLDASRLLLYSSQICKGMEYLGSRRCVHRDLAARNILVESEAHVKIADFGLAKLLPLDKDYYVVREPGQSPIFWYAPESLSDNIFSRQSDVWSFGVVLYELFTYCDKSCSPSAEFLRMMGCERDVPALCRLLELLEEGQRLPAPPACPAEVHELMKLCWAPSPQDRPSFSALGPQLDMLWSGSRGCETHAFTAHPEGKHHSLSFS
Briefly: JAK3 Inhibition Assay. Type of test: biochemical. The settings on record: 1 nM JAK3, 1 μM poly(Glu)4Tyr, 5 μM ATP, 25° C., 33P incorporation.

Sequence of JAK-2 enzyme (O60674 whole entry): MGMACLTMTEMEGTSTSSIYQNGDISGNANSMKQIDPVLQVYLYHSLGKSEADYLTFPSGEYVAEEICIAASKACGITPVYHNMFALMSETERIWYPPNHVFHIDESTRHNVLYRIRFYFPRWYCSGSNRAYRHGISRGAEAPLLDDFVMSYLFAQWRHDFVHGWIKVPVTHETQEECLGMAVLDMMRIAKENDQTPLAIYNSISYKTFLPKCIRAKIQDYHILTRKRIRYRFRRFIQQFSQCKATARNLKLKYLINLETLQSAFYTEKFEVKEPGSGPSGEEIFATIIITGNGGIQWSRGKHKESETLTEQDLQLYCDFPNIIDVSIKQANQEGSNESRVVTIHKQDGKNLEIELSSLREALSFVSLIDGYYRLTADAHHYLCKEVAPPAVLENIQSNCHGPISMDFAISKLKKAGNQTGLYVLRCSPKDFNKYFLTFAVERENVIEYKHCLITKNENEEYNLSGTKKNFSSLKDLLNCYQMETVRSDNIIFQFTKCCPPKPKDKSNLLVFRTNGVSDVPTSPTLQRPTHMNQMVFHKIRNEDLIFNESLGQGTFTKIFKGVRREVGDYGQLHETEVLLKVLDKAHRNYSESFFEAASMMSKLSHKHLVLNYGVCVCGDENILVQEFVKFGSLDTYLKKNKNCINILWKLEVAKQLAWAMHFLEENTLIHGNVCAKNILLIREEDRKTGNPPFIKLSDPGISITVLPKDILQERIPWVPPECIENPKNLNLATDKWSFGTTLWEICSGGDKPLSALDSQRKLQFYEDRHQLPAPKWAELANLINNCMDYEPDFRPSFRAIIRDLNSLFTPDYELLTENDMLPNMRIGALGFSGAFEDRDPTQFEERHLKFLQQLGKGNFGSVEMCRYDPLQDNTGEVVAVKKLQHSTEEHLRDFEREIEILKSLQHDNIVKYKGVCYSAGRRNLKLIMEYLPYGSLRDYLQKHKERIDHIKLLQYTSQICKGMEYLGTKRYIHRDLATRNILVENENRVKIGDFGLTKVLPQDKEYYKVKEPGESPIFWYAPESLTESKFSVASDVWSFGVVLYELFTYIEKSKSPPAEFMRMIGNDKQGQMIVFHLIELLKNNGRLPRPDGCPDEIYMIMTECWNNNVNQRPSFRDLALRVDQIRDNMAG
Procedure for JAK-2 enzyme: Reactions were carried out in a kinase buffer containing 100 mM HEPES (pH 7.4), 1 mM DTT, 10 mM MgCl2, 25 mM NaCl, and 0.01% BSA. Substrate concentrations in the assay were 5 μM ATP (200 uCi/μmole ATP) and 1 μM poly(Glu)4Tyr. Reactions were carried out at 25° C. and 1 nM JAK3.
To each well of a 96 well polycarbonate plate was added 1.5 μl of a candidate JAK3 inhibitor along with 50 μl of kinase buffer containing 2 μM poly(Glu)4Tyr and 10 μM ATP. This was then mixed and 50 μl of kinase buffer containing 2 nM JAK3 enzyme was added to start the reaction. After 20 minutes at room temperature (25° C.), the reaction was stopped with 50 μl of 20% trichloroacetic acid (TCA) that also contained 0.4 mM ATP. The entire contents of each well were then transferred to a 96 well glass fiber filter plate using a TomTek Cell Harvester. After washing, 60 μl of scintillation fluid was added and ^33P incorporation detected on a Perkin Elmer TopCount.

In the case of `COCCOc1nc(N[C@@H](C)c2ccc(F)cc2F)cc(-c2c(N)nn3cccnc23)n1` [Compound 126], the Ki at JAK-2 enzyme and on JAK3 was less than 10 nM each time.

On to `CCC[C@H](Nc1cc(-c2c(N)nn3cccnc23)nc(N2CCOCC2)n1)c1ccc(F)cc1` [Compound 103], for which the Ki (usually the equilibrium dissociation constant of an inhibitor or competing ligand from its target) at JAK-2 enzyme lay in the range of 10 to 100 nM; at JAK3 it was 100 to 500 nM.

`C[C@H](Nc1cc(-c2c(N)nn3ccc(C(F)(F)F)nc23)ncn1)c1ccc(F)cc1F` [Compound 135]: the Ki lay in the range of 10 to 100 nM on JAK-2 enzyme and 100 to 500 nM on JAK3.

With `CC#CCOc1nc(N[C@@H](C)c2ccc(F)cc2)cc(-c2c(N)nn3cccnc23)n1` [Compound 151], the Ki was in the range of 10 to 100 nM at JAK-2 enzyme and 100 to 500 nM on JAK3.

In the case of `C[C@H](Nc1cc(-c2c(N)nn3cccnc23)nc(OCCC2CC2)n1)c1ccc(F)cc1` [Compound 157], the inhibition constant Ki on JAK-2 enzyme lay in the range of 10 to 100 nM; on JAK3, 100 to 500 nM.

Consider `COC(C)(C)CCOc1nc(N[C@@H](C)c2ccc(F)cc2F)cc(-c2cnn3cccnc23)n1` [Compound 194], for which the Ki on JAK-2 enzyme was in the range of 10 to 100 nM; at JAK3, 100 to 500 nM.

As for `Nc1nn2cccnc2c1-c1cc(N2CCc3ccccc3C2)ncn1` [Compound 42], the results for the Ki on JAK-2 enzyme and on JAK3 were 10 to 100 nM and 100 to 500 nM, respectively.

In the case of `C[C@@H](c1ccccc1)N(C)c1cc(-c2c(N)nn3cccnc23)ncn1` [Compound 19], the Ki on JAK-2 enzyme is 10 to 100 nM; on JAK3 it was 100 to 500 nM.

As for `C[C@H](Nc1cc(-c2c(N)nn3cccnc23)nc(N2CC[C@@H](F)C2)n1)c1ccc(F)cc1` [Compound 189], the Ki on JAK-2 enzyme was less than 10 nM; at JAK3, 100 to 500 nM.

Regarding `Nc1nn2cccnc2c1-c1cc(O[C@@H](c2ccccc2)C(F)(F)F)ncn1` [Compound 70], the figures for the Ki at JAK-2 enzyme and at JAK3 were 100 to 500 nM and 500 to 5000 nM, respectively.

Take `CC(C)[C@@H](Nc1cc(-c2cnn3cccnc23)ncn1)c1ccc(F)cc1F` [Compound 120]: the inhibitory constant (Ki) was 10 to 100 nM at JAK-2 enzyme and 100 to 500 nM at JAK3.

On to `CC[C@H](Nc1cc(-c2c(N)nn3ccc(C)nc23)ncn1)c1ccc(F)c(F)c1` [Compound 94], for which the Ki was less than 10 nM on JAK-2 enzyme and 10 to 100 nM at JAK3.

Regarding `Nc1nn2cccnc2c1-c1cc(O[C@H](c2ccccc2)C(F)(F)F)ncn1` [Compound 69], the Ki at JAK-2 enzyme is 10 to 100 nM; at JAK3, 100 to 500 nM.

As to `C[C@H](Nc1cc(-c2cnn3cccnc23)nc(OCCN2CCCCCC2)n1)c1ccc(F)cc1F` [Compound 217], the Ki at JAK-2 enzyme was less than 10 nM; at JAK3, 10 to 100 nM.

Take `C[C@@H](Oc1cc(-c2c(N)nn3cccnc23)ncn1)c1ccccc1` [Compound 67]: the Ki on JAK-2 enzyme was 10 to 100 nM; at JAK3, 100 to 500 nM.

As to `C[C@H](Nc1cc(-c2c(N)nn3cccnc23)nc(OCCCC2CCCC2)n1)c1ccc(F)cc1` [Compound 177], the results for the Ki at JAK-2 enzyme and at JAK3 were 100 to 500 nM and 500 to 5000 nM, respectively.

With `CSCCCOc1nc(N[C@@H](C)c2ccc(F)cc2)cc(-c2c(N)nn3cccnc23)n1` [Compound 172], the Ki on JAK-2 enzyme was less than 10 nM; on JAK3, 10 to 100 nM.

As to `CCC[C@@H](Nc1cc(-c2cnn3cccnc23)ncn1)c1ccc(F)cc1F` [Compound 123], the Ki at JAK-2 enzyme was in the range of 10 to 100 nM; at JAK3, 100 to 500 nM.

In the case of `Cc1ccc(CNc2cc(-c3c(N)nn4cccnc34)ncn2)o1` [Compound 26], the figures for the Ki on JAK-2 enzyme and at JAK3 were 10 to 100 nM and 100 to 500 nM, respectively.

`C[C@H](Nc1cc(-c2cnn3cccnc23)nc(NC(=O)CN2CCOCC2)n1)c1ccc(F)cc1F` [Compound 186]: the Ki on JAK-2 enzyme was less than 10 nM; at JAK3, 100 to 500 nM.

Regarding `C[C@H](Nc1cc(-c2c(N)nn3cccnc23)nc(S(C)(=O)=O)n1)c1ccc(F)cc1F` [Compound 111], the Ki on JAK-2 enzyme and on JAK3 was less than 10 nM in each case.

Take `COc1ccccc1CNc1cc(-c2c(N)nn3cccnc23)ncn1` [Compound 5]: the Ki is less than 10 nM at JAK-2 enzyme and 10 to 100 nM at JAK3.

With `C=CCCCOc1nc(N[C@@H](C)c2ccc(F)cc2)cc(-c2c(N)nn3cccnc23)n1` [Compound 182], the values for the Ki on JAK-2 enzyme and on JAK3 were 10 to 100 nM and 100 to 500 nM, respectively.

As to `CCN(CC)CCOc1nc(N[C@@H](C)c2ccc(F)cc2F)cc(-c2cnn3cccnc23)n1` [Compound 208], the Ki at JAK-2 enzyme is less than 10 nM; on JAK3, 10 to 100 nM.

With `C[C@H](Nc1cc(-c2c(N)nn3cccnc23)nc(OCC2CCOC2)n1)c1ccc(F)cc1` (some centres unmarked) [Compound 164], the values for the inhibition constant Ki at JAK-2 enzyme and at JAK3 were less than 10 nM and 10 to 100 nM, respectively.

For `C[C@H](Nc1cc(-c2cnn3cccnc23)nc(OCCN2CCNCC2)n1)c1ccc(F)cc1F` [Compound 210], the values for the Ki on JAK-2 enzyme and on JAK3 were less than 10 nM and 10 to 100 nM, respectively.

Turning to `C[C@H](Nc1cc(-c2cnn3cccnc23)nc(OCC2CCOC2)n1)c1ccc(F)cc1F` (some centres unmarked) [Compound 222], the Ki is less than 10 nM at JAK-2 enzyme and 10 to 100 nM on JAK3.

With `CC[C@H](Nc1cc(-c2c(N)nn3cccnc23)ncn1)c1ccc(Cl)cc1F` [Compound 83], the values for the Ki at JAK-2 enzyme and on JAK3 were less than 10 nM and 100 to 500 nM, respectively.

Turning to `C[C@H](Nc1cc(-c2c(N)nn3cccnc23)nc(OCC(F)(F)F)n1)c1ccc(F)cc1` [Compound 156], the figures for the Ki on JAK-2 enzyme and on JAK3 were less than 10 nM and 100 to 500 nM, respectively.

For `C[C@H](Nc1cc(-c2cnn3cccnc23)nc(OCCN2CCCC2)n1)c1ccc(F)cc1F` [Compound 204], the results for the Ki at JAK-2 enzyme and on JAK3 were less than 10 nM and 10 to 100 nM, respectively.

In the case of `C=CCOc1nc(N[C@@H](C)c2ccc(F)cc2)cc(-c2c(N)nn3cccnc23)n1` [Compound 169], the Ki on JAK-2 enzyme is less than 10 nM; at JAK3 it was 10 to 100 nM.

Turning to `C[C@H](Nc1cc(-c2cnn3cccnc23)nc(OCC2CCCN2)n1)c1ccc(F)cc1F` (some centres unmarked) [Compound 216], the Ki on JAK-2 enzyme was less than 10 nM; on JAK3, 100 to 500 nM.

With `C[C@H](Nc1cc(-c2cnn3cccnc23)nc(OCCOCCN2CCNCC2)n1)c1ccc(F)cc1F` [Compound 203], the values for the Ki on JAK-2 enzyme and at JAK3 were 10 to 100 nM and 100 to 500 nM, respectively.

As for `C[C@H](Oc1cc(-c2c(N)nn3cccnc23)ncn1)c1ccccc1` [Compound 68], the Ki was less than 10 nM at JAK-2 enzyme and 10 to 100 nM on JAK3.

Consider `Cc1ccccc1CNc1cc(-c2c(N)nn3cccnc23)ncn1` [Compound 11], for which the Ki on JAK-2 enzyme was less than 10 nM; on JAK3, 10 to 100 nM.

Consider `C[C@H](Nc1cc(-c2c(N)nn3cccnc23)nc(C#N)n1)c1ccc(F)cc1F` [Compound 140], for which the Ki on JAK-2 enzyme and on JAK3 was less than 10 nM each time.

Regarding `CNCCOc1nc(N[C@@H](C)c2ccc(F)cc2F)cc(-c2cnn3cccnc23)n1` [Compound 199], the values for the Ki on JAK-2 enzyme and at JAK3 were less than 10 nM and 10 to 100 nM, respectively.

For the compound `O=C(Nc1ccnc(-c2cnn3cccnc23)c1)c1ccc(F)cc1F` [Compound 229], the Ki was in the range of 100 to 500 nM on JAK-2 enzyme and 500 to 5000 nM at JAK3.

As for `COCCOc1nc(N[C@@H](C)c2ccc(F)cc2F)cc(-c2cnn3cccnc23)n1` [Compound 196], the Ki on JAK-2 enzyme is less than 10 nM; at JAK3, 10 to 100 nM.

On to `Cc1ccn2nc(N)c(-c3cc(N[C@@H](C)c4ccc(F)cc4)ncn3)c2n1` [Compound 95], for which the Ki at JAK-2 enzyme is less than 10 nM; at JAK3, 10 to 100 nM.

The record behind these values is patent US8937064B2, “Pyrazolo[1,5-a]pyrimidines useful as JAK2 inhibitors” (Vertex Pharmaceuticals Incorporated, priority 2007, dated 2015).
